Test: In vivo PK in CD-1 mice, plasma and brain by LC-MS/MS
Details: for Mean concentration in brain: ± SD, n=3; for AUC(0-inf): AUCInf
Experimental: Initial in vivo PK studies to confirm oral bioavailability and brain exposure were conducted at Pharmaron (Beijing, China) in non‐fasted male CD‐1 mice (6–8 weeks of age; sourced from Vital River). […] The dose volume was 10 mL/kg.
Next, we evaluated brain and plasma PK of 10 mg/kg (1 hour pre, IP, n = 3). Experiments then were conducted to confirm and extend initial PK data and evaluate brain and plasma levels at doses of 1, 10, and 100 mg/kg after oral administration at 1, 3, and 8 hours post dose (n = 3 per dose per timepoint).
Serial blood was collected via the dorsal metatarsal vein into ethylenediaminetetraacetic acid‐K2 coated tubes and centrifuged at 4°C x 4000 g for 5 minutes to obtain plasma that was aliquoted and stored at −80°C until analysis. For terminal studies, blood was collected via cardiac puncture under isoflurane anesthesia. Whole brain was homogenized at a ratio of 1:3 with PBS (W:V, 1:3).
For sample analysis liquid chromatography tandem mass spectrometry (LC‐MS/MS) was conducted using an AB Sciex Triple Quad 5500 LC/MS/MS instrument. Briefly, the desired serial concentrations of working solutions were achieved by diluting stock solution of analyte with 50% acetonitrile in water solution. Ten µL of working solutions (0.5, 1, 2, 5, 10, 50, 100, 500, and 1000 ng/mL) were added to 10 µL of the blank CD1 mouse plasma/brain homogenate to achieve calibration standards of 0.5 to 1000 ng/mL (0.5, 1, 2, 5, 10, 50, 100, 500, and 1000 ng/mL) in a total volume of 20 µL. Five quality control (QC) samples at 1 ng/mL, 2 ng/mL, 5 ng/mL, 50 ng/mL, and 800 ng/mL for plasma/brain homogenate were prepared independently of those used for the calibration curves. These QC samples were prepared on the day of analysis in the same way as calibration standards. Twenty µL standards, 20 µL QC samples, and 20 µL unknown samples (10 µL plasma/brain homogenate with 10 µL blank solution) were added to 200 µL of acetonitrile containing internal standard (IS) mixture for precipitating protein, respectively. The samples were vortexed for 30 seconds followed by centrifugation at 4°C x 2600 g for 15 minutes. The supernatant was diluted at a ratio of 1:2 with H2O (V/V, 1:2), 5 µL of diluted supernatant was injected into the LC‐MS/MS system for quantitative analysis. The lower limit of quantification (LLOQ) was 0.5 ng/mL for plasma and 1 ng/mL for brain. PK parameters were estimated by non‐compartmental model analysis using WinNonlin 8.3.

[1] = male, CD-1, mouse, brain, oral, 10 mg/kg
[2] = male, CD-1, mouse, brain, oral, 100 mg/kg
[3] = male, CD-1, mouse, brain, po, 10 mg/kg, 10 mg/kg PO
[4] = male, CD-1, mouse, brain, po, 100 mg/kg, 100 mg/kg PO
[5] = male, CD-1, mouse, plasma, ip, 10 mg/kg, 10 mg/kg IP, sampling 0.5, 1, 3, 5 h
[6] = male, CD-1, mouse, plasma, po, 1 mg/kg, 1 mg/kg PO
[7] = male, CD-1, mouse, plasma, po, 10 mg/kg, 10 mg/kg PO, sampling 0.5, 1, 3, 5 h
[8] = male, CD-1, mouse, plasma, po, 10 mg/kg, 10 mg/kg PO, sampling 1, 3, 8 h
[9] = male, CD-1, mouse, plasma, po, 100 mg/kg, 100 mg/kg PO
[10] = plasma, 10 mg/kg IP, sampling 0.5, 1, 3, 5 h
[11] = plasma, 10 mg/kg PO, sampling 0.5, 1, 3, 5 h
[12] = plasma, 10 mg/kg PO, sampling 1, 3, 8 h

CC(C)NC(=O)N1CC[C@H](NC2=Nc3cc(F)ccc3N(CC(F)F)c3ccc(Cl)cc32)C1 [NVS‐PAK1‐1, (S)‐3‐([2‐chloro‐5‐(2,2‐difluoroethyl)‐8‐fluoro‐5H‐dibenzo[b,e][1,4]diazepin‐11‐yl]amino)‐N‐isopropylpyrrolidine‐1‐carboxamide]
Mean concentration in brain (1 mg/kg PO, 1 h post dose): BLOQ | Mean concentration in brain (1 mg/kg PO, 3 h post dose): BLOQ | Mean concentration in brain (1 mg/kg PO, 8 h post dose): BLOQ | concentration in brain (1 mg/kg PO, at 1, 3 and 8 hours post dose): < 1 ng/mL | Mean concentration in brain (10 mg/kg PO, 8 h post dose): BLOQ | Mean concentration in brain (100 mg/kg PO, 8 h post dose): detectable | AUC_%Extrap_obs (brain, 10 mg/kg PO): 15.3% | AUClast/D (brain, 10 mg/kg PO): 5.74 h·ng/mL per mg/kg | AUC_%Extrap_obs (brain, 100 mg/kg PO): 1.34% | AUClast/D (brain, 100 mg/kg PO): 13.8 h·ng/mL per mg/kg | concentration at 1 h (male, CD-1, mouse, brain, intraperitoneal, 10 mg/kg): 112 ± 14 ng/g | concentration at 1 h [1]: 33.2 ± 13 ng/g | concentration at 3 h [1]: 7.62 ± 1.16 ng/g | concentration at 1 h [2]: 759 ± 379 ng/g | concentration at 3 h [2]: 61.6 ± 3.5 ng/g | concentration at 8 h [2]: 14.3 ± 5.4 ng/g | AUC(0-inf) [3]: 67.8 ng·h/mL | AUC(0-t) (male, CD-1, mouse, brain, po, 10 mg/kg, AUClast, 10 mg/kg PO): 57.4 ng·h/mL | Cmax [3]: 33.2 ng/mL | MRT inf (male, CD-1, mouse, brain, po, 10 mg/kg, MRTInf_obs, 10 mg/kg PO): 1.74 h | half-life (male, CD-1, mouse, brain, po, 10 mg/kg, T1/2, brain, 10 mg/kg PO): 0.942 h | Tmax [3]: 1 h | AUC(0-inf) [4]: 1400 ng·h/mL | AUC(0-t) (male, CD-1, mouse, brain, po, 100 mg/kg, AUClast, 100 mg/kg PO): 1380 ng·h/mL | Cmax [4]: 759 ng/mL | half-life (male, CD-1, mouse, brain, po, 100 mg/kg, T1/2, brain, 100 mg/kg PO): 1.23 h | Tmax [4]: 1 h | Kp at 1 h (male, CD-1, mouse, brain/plasma, ip, 10 mg/kg): 0.25 | Kp (male, CD-1, mouse, brain/plasma, po, 10 mg/kg): 0.21 | Kp (male, CD-1, mouse, brain/plasma, po, 100 mg/kg): 0.302 | AUC(0-t) (male, CD-1, mouse, in vivo, po, 1 mg/kg): 27.2 ng·h/mL | MRT inf (male, CD-1, mouse, in vivo, po, 100 mg/kg): 1.56 h | concentration at 1 h (male, CD-1, mouse, plasma, intraperitoneal, 10 mg/kg): 448 ± 65 ng/mL | AUC(0-inf) [5]: 1170 ng·h/mL | AUC(0-t) (male, CD-1, mouse, plasma, ip, 10 mg/kg, AUClast, 10 mg/kg IP, sampling 0.5, 1, 3, 5 h): 1150 ng·h/mL | Cmax [5]: 878 ng/mL | MRT inf (male, CD-1, mouse, plasma, ip, 10 mg/kg, MRTInf_obs, 10 mg/kg IP, sampling 0.5, 1, 3, 5 h): 1.1 h | half-life (male, CD-1, mouse, plasma, ip, 10 mg/kg, T1/2, plasma, 10 mg/kg IP, sampling 0.5, 1, 3, 5 h): 0.814 h | Tmax [5]: 0.5 h | AUC(0-inf) [6]: 31.6 ng·h/mL | Cmax [6]: 8.1 ng/mL | MRT inf (male, CD-1, mouse, plasma, po, 1 mg/kg, MRTInf_obs, 1 mg/kg PO): 3.92 h | half-life (male, CD-1, mouse, plasma, po, 1 mg/kg, T1/2, plasma, 1 mg/kg PO): 2.62 h | Tmax [6]: 1 h | AUC(0-inf) [7]: 252 ng·h/mL | AUC(0-inf) [8]: 280 ng·h/mL | AUC(0-t) (male, CD-1, mouse, plasma, po, 10 mg/kg, AUClast, 10 mg/kg PO, sampling 0.5, 1, 3, 5 h): 223 ng·h/mL | AUC(0-t) (male, CD-1, mouse, plasma, po, 10 mg/kg, AUClast, 10 mg/kg PO, sampling 1, 3, 8 h): 274 ng·h/mL | Cmax [7]: 130 ng/mL | Cmax [8]: 112 ng/mL | MRT inf (male, CD-1, mouse, plasma, po, 10 mg/kg, MRTInf_obs, 10 mg/kg PO, sampling 0.5, 1, 3, 5 h): 2.19 h | MRT inf (male, CD-1, mouse, plasma, po, 10 mg/kg, MRTInf_obs, 10 mg/kg PO, sampling 1, 3, 8 h): 2.1 h | half-life (male, CD-1, mouse, plasma, po, 10 mg/kg, T1/2, plasma, 10 mg/kg PO, sampling 0.5, 1, 3, 5 h): 1.56 h | half-life (male, CD-1, mouse, plasma, po, 10 mg/kg, T1/2, plasma, 10 mg/kg PO, sampling 1, 3, 8 h): 1.4 h | Tmax [7]: 0.5 h | Tmax [8]: 1 h | AUC(0-inf) [9]: 4720 ng·h/mL | AUC(0-t) (male, CD-1, mouse, plasma, po, 100 mg/kg, AUClast, 100 mg/kg PO): 4570 ng·h/mL | Cmax [9]: 2330 ng/mL | MRT inf (male, CD-1, mouse, plasma, po, 100 mg/kg, MRTInf_obs, 100 mg/kg PO): 1.91 h | half-life (male, CD-1, mouse, plasma, po, 100 mg/kg, T1/2, plasma, 100 mg/kg PO): 1.5 h | Tmax [9]: 1 h | AUC_%Extrap_obs (plasma, 1 mg/kg PO): 14.0% | AUClast/D (plasma, 1 mg/kg PO): 27.2 h·ng/mL per mg/kg | AUC_%Extrap_obs [10]: 1.62% | AUClast/D [10]: 115 h·ng/mL per mg/kg | AUC_%Extrap_obs [11]: 11.3% | AUClast/D [11]: 22.3 h·ng/mL per mg/kg | AUC_%Extrap_obs [12]: 2.29% | AUClast/D [12]: 27.4 h·ng/mL per mg/kg | AUC_%Extrap_obs (plasma, 100 mg/kg PO): 3.08% | AUClast/D (plasma, 100 mg/kg PO): 45.7 h·ng/mL per mg/kg

Reference: paper PMC12741935 (Alzheimer's & Dementia, 2025)
